Each structure is given as a SMILES string.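 Protocol summary: plate cells (96-well), add compound at 5 concentrations, incubate 48 h, interpolate endpoints linearly. Abbreviation: GI50, concentration required for 50% inhibition of growth.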 Calls of active or inactive are those of the source. No stated cut-off is given here; in the data, active = GI50 up to about 1.1 µM and inactive = higher. A value given as a limit tells only on which side of the number the result lay.

Test systems include HCT-15; OVCAR-8; A498; TK-10; HOP-92; SK-MEL-5; LOX IMVI; UACC-257; MCF7; K562; MOLT-4; HL-60; RPMI-8226; COLO 205; CAKI-1; SNB-75; Hs-578T; MDA-MB-231; SK-OV-3; PC-3.
Assay in all cases: growth of human tumour cells (NCI), 48 h

With `CN1C(=O)N/C(=C\c2ccc(S(=O)(=O)N/N=C/c3ccccc3)cc2)C1=O`, the GI50 was 10.4 µM with HCT-15; 28.5 µM (inactive) in the experiment with OVCAR-8; > 100 µM (inactive) with A498; 31 µM (inactive) with TK-10; 17.1 µM (inactive) in the experiment on HOP-92; 13.6 µM (inactive) in the experiment with SK-MEL-5. Besides, the GI50 in the experiment on LOX IMVI is 18.1 µM (inactive); with UACC-257 it was 18.4 µM (inactive); in the experiment on MCF7 it was 19.1 µM (inactive); with K562 it was 30 µM (inactive); with MOLT-4, 14.5 µM (inactive); in the experiment on HL-60, 4.93 µM (inactive). Also, the GI50 was 18.6 µM (inactive) with RPMI-8226; 71.9 µM (inactive) in the experiment with COLO 205; 21.2 µM (inactive) in the experiment on CAKI-1; 48.3 µM (inactive) in the experiment with SNB-75; 35.5 µM (inactive) in the experiment with Hs-578T; 11 µM (inactive) with MDA-MB-231. Further, the GI50 was > 100 µM (inactive) in the experiment with SK-OV-3 and 22.1 µM (inactive) with PC-3.

`CO[C@@]12C[C@H](CNC(=O)c3ccc[nH]3)O[C@@H]1NC(=O)N2`: the GI50 with HCT-15 is more than 100 µM; with OVCAR-8, > 100 µM (inactive); in the experiment on A498, > 100 µM (inactive); with TK-10 it was > 100 µM (inactive); in the experiment with HOP-92, > 100 µM (inactive); with SK-MEL-5 it was > 100 µM (inactive). Moreover, the GI50 in the experiment on LOX IMVI, in the experiment on UACC-257, in the experiment with MCF7, with K562, in the experiment with MOLT-4 and in the experiment on HL-60 was > 100 µM (inactive) throughout. The GI50 in the experiment on RPMI-8226, in the experiment on COLO 205, with CAKI-1, in the experiment with SNB-75, with Hs-578T and with MDA-MB-231 was > 100 µM (inactive) throughout. Moreover, the GI50 in the experiment with SK-OV-3 and in the experiment on PC-3 was > 100 µM (inactive) throughout.

Consider `Brc1ccc2[nH]cc([C@H]3CN[C@@H](c4c[nH]c5ccc(Br)cc45)CN3)c2c1`, for which the GI50 in the experiment on HCT-15 is 2.04 µM; with OVCAR-8 it was 1.79 µM (inactive); in the experiment on A498, 2 µM (inactive); with TK-10, 2.26 µM (inactive); in the experiment on HOP-92 it was 1.87 µM (inactive); in the experiment on SK-MEL-5 it was 2.56 µM (inactive). The GI50 is 1.44 µM (inactive) in the experiment with LOX IMVI; 3.64 µM (inactive) in the experiment with UACC-257; 1.58 µM (inactive) with MCF7; 1.99 µM (inactive) with K562; 2.11 µM (inactive) in the experiment with MOLT-4; 1.77 µM (inactive) in the experiment with HL-60. Moreover, the GI50 in the experiment on RPMI-8226 is 2.16 µM (inactive); in the experiment on COLO 205 it was 1.73 µM (inactive); with CAKI-1, 1.82 µM (inactive); in the experiment on SNB-75 it was 1.83 µM (inactive); in the experiment with Hs-578T it was 4.31 µM (inactive); in the experiment with MDA-MB-231, 1.62 µM (inactive). In addition, the GI50 in the experiment with SK-OV-3 was 2.49 µM (inactive); in the experiment with PC-3 it was 1.88 µM (inactive).

In the case of `CN1c2ccc(Cl)cc2C(=O)NC1c1ccc([N+](=O)[O-])s1` (stereo not given), the GI50 in the experiment on HCT-15 was 12.7 µM; with OVCAR-8, 15.8 µM (inactive); in the experiment with A498, 14.8 µM (inactive); with TK-10 it was 20.2 µM (inactive); in the experiment with HOP-92, 14.5 µM (inactive); in the experiment with SK-MEL-5, 16.1 µM (inactive). Moreover, the GI50 is 14.5 µM (inactive) in the experiment with LOX IMVI; 15.1 µM (inactive) in the experiment with UACC-257; 19.6 µM (inactive) in the experiment on MCF7; 13.3 µM (inactive) in the experiment with K562; 10.4 µM (inactive) in the experiment with MOLT-4; 19.6 µM (inactive) with HL-60. Moreover, the GI50 in the experiment with RPMI-8226 was 6.19 µM (inactive); in the experiment with COLO 205 it was 21.5 µM (inactive); in the experiment on CAKI-1, 15.1 µM (inactive); with SNB-75, 12 µM (inactive); with Hs-578T it was 17.3 µM (inactive); with MDA-MB-231, 16.2 µM (inactive). Further, the GI50 in the experiment on SK-OV-3 is 20.2 µM (inactive); with PC-3 it was 16 µM (inactive).

With `Clc1ccc(/N=C/C=C/Nc2ccc(Cl)cn2)nc1`, the GI50 in the experiment with HCT-15 is 1.76 µM; with OVCAR-8, 10.4 µM (inactive); in the experiment on A498, 20.1 µM (inactive); with TK-10, 19.1 µM (inactive); in the experiment on HOP-92 it was 16.3 µM (inactive); in the experiment on SK-MEL-5 it was 13.7 µM (inactive). Moreover, the GI50 is 7.73 µM (inactive) in the experiment with LOX IMVI; 17.1 µM (inactive) with UACC-257; 16.4 µM (inactive) in the experiment on MCF7; 7.66 µM (inactive) in the experiment with K562; 4.74 µM (inactive) in the experiment on MOLT-4; 2.12 µM (inactive) with HL-60. Further, the GI50 was 10.4 µM (inactive) in the experiment on RPMI-8226; 12.6 µM (inactive) in the experiment with COLO 205; 9.82 µM (inactive) in the experiment with CAKI-1; 13 µM (inactive) with SNB-75; 5.14 µM (inactive) in the experiment on Hs-578T; 5 µM (inactive) with MDA-MB-231. The GI50 in the experiment with SK-OV-3 was 21.8 µM (inactive); with PC-3 it was 14.5 µM (inactive).

Turning to `S=C(N/N=C(\C(=N/NC(=S)N1CCCCC1)c1ccccn1)c1ccccn1)N1CCCCC1`, the GI50 in the experiment with HCT-15 was 6.87 µM; in the experiment with OVCAR-8 it was 27.9 µM (inactive); in the experiment with A498 it was 32.7 µM (inactive); in the experiment on TK-10 it was 19.4 µM (inactive); with HOP-92, 64.3 µM (inactive); in the experiment with SK-MEL-5, 5.5 µM (inactive). In addition, the GI50 in the experiment on LOX IMVI is 20.2 µM (inactive); with UACC-257 it was 54.1 µM (inactive); in the experiment with MCF7 it was 12.1 µM (inactive); in the experiment with K562, 32.5 µM (inactive); in the experiment with MOLT-4 it was 8.53 µM (inactive); in the experiment with HL-60, 1.12 µM (active). In addition, the GI50 with RPMI-8226 is 67.9 µM (inactive); in the experiment with COLO 205, 6.38 µM (inactive); with CAKI-1, 73.6 µM (inactive); with SNB-75, 56.1 µM (inactive); with Hs-578T, 28.8 µM (inactive); in the experiment on MDA-MB-231, > 100 µM (inactive). Further, the GI50 is 29.1 µM (inactive) in the experiment with SK-OV-3 and 35.1 µM (inactive) in the experiment on PC-3.

For `O=C(O)c1ccccc1NC(c1ccccc1)c1ccc2cccnc2c1O` (stereo not given), the GI50 was 4.42 µM with HCT-15; 4.85 µM (inactive) in the experiment on OVCAR-8; 24.6 µM (inactive) in the experiment with A498; 13.8 µM (inactive) in the experiment on TK-10; 26.9 µM (inactive) in the experiment with HOP-92; 8.39 µM (inactive) in the experiment with SK-MEL-5. Further, the GI50 with LOX IMVI was 7.96 µM (inactive); in the experiment with UACC-257, 14 µM (inactive); in the experiment with MCF7 it was 4.85 µM (inactive); in the experiment with K562, 8.87 µM (inactive); with MOLT-4 it was 4.06 µM (inactive); with HL-60, 1.2 µM (inactive). Further, the GI50 in the experiment with RPMI-8226 is 3.04 µM (inactive); in the experiment on COLO 205, 15.7 µM (inactive); in the experiment on CAKI-1, 9.44 µM (inactive); in the experiment with SNB-75, 29.3 µM (inactive); in the experiment on Hs-578T, 22.4 µM (inactive); with MDA-MB-231, 12.1 µM (inactive). Further, the GI50 was 16.8 µM (inactive) in the experiment on SK-OV-3 and 9.04 µM (inactive) in the experiment on PC-3.

With `CC(C)[C@H](NC(=O)[C@@H](O)[C@H](N)Cc1ccccc1)C(=O)N[C@@H](Cc1ccccc1)C(=O)O`, the GI50 in the experiment on HCT-15 is more than 100 µM; in the experiment on OVCAR-8, > 100 µM (inactive); in the experiment with A498, > 100 µM (inactive); in the experiment with TK-10 it was > 100 µM (inactive); in the experiment with HOP-92, > 100 µM (inactive); with SK-MEL-5, > 100 µM (inactive). In addition, the GI50 in the experiment with LOX IMVI, in the experiment on UACC-257, with MCF7, in the experiment with K562, in the experiment on MOLT-4 and in the experiment with HL-60 was > 100 µM (inactive) each time. In addition, the GI50 with RPMI-8226, with COLO 205, with CAKI-1, in the experiment with SNB-75, in the experiment with Hs-578T and in the experiment with MDA-MB-231 was > 100 µM (inactive) in each case. The GI50 with SK-OV-3 and in the experiment on PC-3 was > 100 µM (inactive) in each case.

Consider `O=C1NC2(CCN(CCc3ccccc3)CC2)Oc2ccccc21`, for which the GI50 in the experiment with HCT-15 was 46.3 µM; in the experiment on OVCAR-8, 64.7 µM (inactive); in the experiment on A498 it was 68.1 µM (inactive); with TK-10, > 100 µM (inactive); in the experiment on HOP-92 it was 24.7 µM (inactive); with SK-MEL-5, 14.5 µM (inactive). The GI50 with LOX IMVI was 53.7 µM (inactive); with UACC-257, 37.8 µM (inactive); in the experiment with MCF7 it was 46.5 µM (inactive); with K562, 32.5 µM (inactive); in the experiment on MOLT-4, 32.5 µM (inactive); in the experiment with HL-60, 40.4 µM (inactive). Besides, the GI50 is 33.7 µM (inactive) in the experiment on RPMI-8226; 31.5 µM (inactive) with COLO 205; > 100 µM (inactive) with CAKI-1; 36.9 µM (inactive) in the experiment with SNB-75; 15.3 µM (inactive) with Hs-578T; 88.3 µM (inactive) in the experiment with MDA-MB-231. The figures for the GI50 in the experiment on SK-OV-3 and with PC-3 were > 100 µM (inactive) and 33.9 µM (inactive), respectively.

Regarding `COc1cc(C(=O)N(C)N(C)C)cc(OC)c1OC`, the GI50 was more than 10 µM in the experiment with HCT-15; > 10 µM (inactive) with OVCAR-8; > 10 µM (inactive) with A498; > 10 µM (inactive) in the experiment with TK-10; > 10 µM (inactive) in the experiment on HOP-92; > 10 µM (inactive) in the experiment on SK-MEL-5. For the same compound, the GI50 in the experiment with LOX IMVI, with UACC-257, in the experiment with MCF7, with K562, with MOLT-4 and in the experiment on HL-60 was > 10 µM (inactive) throughout. The GI50 in the experiment on RPMI-8226, in the experiment on COLO 205, in the experiment on CAKI-1, with SNB-75, with Hs-578T and with MDA-MB-231 was > 10 µM (inactive) each time. Besides, the GI50 in the experiment with SK-OV-3 and with PC-3 was > 10 µM (inactive) each time.

Values taken from ChEMBL document CHEMBL1201862, “PubChem BioAssay data set” (2004).
